US20230381127A1, “COMPOSITIONS AND METHODS FOR MOOD ENHANCEMENT” (EPITRACKER, INC., priority 2020, published 2023)

Columns and labels:
[1] = Customer testimonials on stress and mood with fatty15 (C15:0) supplement; type: in vivo, human; conditions: daily oral supplementation 100 mg/day (fatty15); summary of testimonials in the 1st table
Procedure: An odd-chain saturated fatty acid dietary supplement, containing an encapsulated pure (>98%) free fatty acid C15:0 powder and called fatty15™, is available as a consumer health product. Recommended dosing is a single, 100 mg capsule taken orally once a day. Customers were provided opportunities to share their experience, including through voluntary surveys and customer rating programs.

[2] = 6-week voluntary electronic customer survey on stress and mood after daily fatty15 (C15:0) supplement; type: in vivo, human; conditions: 100 mg daily oral (fatty15 capsule), 6 weeks; 135 responders; response of 7 or greater on 1-10 scale = agreement
Procedure: An odd-chain saturated fatty acid dietary supplement, containing an encapsulated pure (>98%) free fatty acid C15:0 powder and called fatty15™, was available as a consumer health product. Recommended dosing is a single, 100 mg capsule taken orally once a day.
6-Week Survey. Approximately six weeks following receipt of the C15:0 supplement, fattyl5, customers were provided a voluntary electronic questionnaire to evaluate potential near-term benefits, including the questions: “Overall how much would you agree with the following statement: Since starting fatty15, I have been feeling more calm and/or less stressed.” and “Overall how much would you agree with the following statement: Since starting fatty15, I generally feel happier and/or not as bothered by things that used to upset me.”
Survey responders were asked to select a number between 1 and 10, in which 1=Strongly disagree and 10=Strongly agree. A response of 7 or greater was considered an agreement with the statement. Survey responders were also asked if fatty15 had become a part of their daily health routine.

CB1 = target: T1, CB1 (Homo sapiens, UniProt P21554); test: SAFETYscan E/IC50 ELECT functional assay, CB1 receptor agonist mode; type: cell-based; conditions: at 20 μM; relative to positive control CP 55940 assigned 100% activity
T1 construct: purchased DiscoverX/Eurofins SAFETYscan E/IC50 ELECT
T1 sequence (P21554 whole entry): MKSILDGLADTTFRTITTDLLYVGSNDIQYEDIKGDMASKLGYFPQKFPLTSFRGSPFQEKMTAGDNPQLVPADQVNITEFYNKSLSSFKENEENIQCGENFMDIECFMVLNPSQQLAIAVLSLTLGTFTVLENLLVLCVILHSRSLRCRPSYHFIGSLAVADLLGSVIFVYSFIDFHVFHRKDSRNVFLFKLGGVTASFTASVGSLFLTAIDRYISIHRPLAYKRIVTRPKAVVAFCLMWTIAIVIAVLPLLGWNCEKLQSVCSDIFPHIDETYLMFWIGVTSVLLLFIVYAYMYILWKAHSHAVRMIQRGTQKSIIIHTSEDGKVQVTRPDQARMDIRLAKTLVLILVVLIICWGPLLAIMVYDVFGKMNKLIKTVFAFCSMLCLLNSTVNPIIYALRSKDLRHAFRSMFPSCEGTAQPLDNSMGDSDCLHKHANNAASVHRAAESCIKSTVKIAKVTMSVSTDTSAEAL
Excerpt: (§1) This study assessed potential pharmacologic targets of pentadecanoic acid. Specifically, this study examined agonist and antagonist activities of synthetic pentadecanoic acid across 78 assays using SAFETYscan E/IC50 ELECT (DiscoverX/Eurofins, Fremont, California). Briefly, a variety of standardized and optimized functional assays were used to assess pentadecanoic acid's pharmacologic targets, including G protein coupled receptors (ADORA2A, ADRA1A, ADRA2A, ADRB1, ADRB2, CB1, CB2, CCK1, D1, D2S, ETA, H1, H2, M1 M2, M3, OPRD1, OPRK1, OPRM1, 5HTR1A, 5HTR1B, 5HTR2A, 5HTR2B, AVPR1A), kinases (LCK, INSR, VEGFR2, ROCK1), transporters (DAT, NET, SERT), ion channels (GABAA, 5-HT3, CA1.2, HERG, KVLQT1/MINK, NA1.5, NMDAR1/2B, NACHR), nuclear receptors (AR, GR), and non-kinase enzymes (COX1, COX2, ACHE, MAOA, PDE3A, PDE4D2). Ten-point concentration curves for both agonist (EC50) and antagonist (IC50) activity were established for each target. Maximum activity (%) was also determined based on comparisons with internal positive controls, which were assigned 100% activity.

CB2 = target: T2, CB2 (Homo sapiens, UniProt P34972); test: SAFETYscan E/IC50 ELECT functional assay, CB2 receptor agonist mode; type: cell-based; conditions: at 20 μM; relative to positive control CP 55940 assigned 100% activity
T2 construct: purchased DiscoverX/Eurofins SAFETYscan E/IC50 ELECT
T2 sequence (P34972 whole entry): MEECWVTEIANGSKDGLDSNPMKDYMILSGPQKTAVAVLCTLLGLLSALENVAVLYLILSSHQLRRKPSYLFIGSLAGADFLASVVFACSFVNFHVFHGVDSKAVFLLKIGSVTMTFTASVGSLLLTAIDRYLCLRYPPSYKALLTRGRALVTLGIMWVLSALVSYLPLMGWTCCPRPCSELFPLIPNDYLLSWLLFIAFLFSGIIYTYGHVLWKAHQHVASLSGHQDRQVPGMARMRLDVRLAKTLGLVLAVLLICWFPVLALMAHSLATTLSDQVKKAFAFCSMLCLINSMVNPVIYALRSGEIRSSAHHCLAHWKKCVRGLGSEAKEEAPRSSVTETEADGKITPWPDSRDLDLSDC
Excerpt: as §1

CCCCCCCCCCCCCCC(=O)O [pentadecanoic acid]
effect on stress and mood per customer testimonials [1]: can lower stress and calm and enhance mood
customers reporting feeling calmer and/or less stressed [2]: 41%
customers reporting feeling generally happier and/or not as bothered by things that used to upset them [2]: 37%
CB1 agonist activity (CB1): 24.5%
CB2 agonist activity (CB2): 18.2%
